# Test system: MV-4-11 cells
# Experiment: Gene expression microarray analysis (Affymetrix PrimeView) and GSEA
# Assay type: cell-based, human
# Parameters: RFU PODN (11730768_x_at) / Fold change /veh PODN (11730768_x_at) / RFU LINC00158 (11744669_a_at) / Fold change /veh LINC00158 (11744669_a_at) / RFU DUSP10 (11751237_a_at) / Fold change /veh DUSP10 (11751237_a_at) / RFU ID3 (11757404_x_at) / Fold change /veh ID3 (11757404_x_at) / RFU PLEKHG5 (11737974_s_at) / Fold change /veh PLEKHG5 (11737974_s_at) / RFU LRRC4B (11730491_at) / Fold change /veh LRRC4B (11730491_at) / RFU GIMAP4 (11747438_a_at) / Fold change /veh GIMAP4 (11747438_a_at) / RFU KRT8 (11758183_x_at) / Fold change /veh KRT8 (11758183_x_at) / RFU CNN1 (11734310_a_at) / Fold change /veh CNN1 (11734310_a_at) / RFU VPS37D (11726825_at) / Fold change /veh VPS37D (11726825_at) / RFU C10orf10 (11716522_x_at) / Fold change /veh C10orf10 (11716522_x_at) / RFU KIR2DL2 /// KIR2DL4 /// KIR2DL5A /// KIR2DL5B /// KIR2DS1 /// KIR2DS2 /// KIR2DS3 /// KIR2DS4 /// KIR3DL3 /// KIR3DL3 /// KIR3DS1 (11738374_at) / Fold change /veh KIR2DL2 /// KIR2DL4 /// KIR2DL5A /// KIR2DL5B /// KIR2DS1 /// KIR2DS2 /// KIR2DS3 /// KIR2DS4 /// KIR3DL3 /// KIR3DL3 /// KIR3DS1 (11738374_at) / RFU C1QL1 (11718748_at) / Fold change /veh C1QL1 (11718748_at) / RFU TMPRSS4 (11747572_a_at) / Fold change /veh TMPRSS4 (11747572_a_at) / RFU HAMP (11756126_x_at) / Fold change /veh HAMP (11756126_x_at) / RFU RNFT2 (11725882_a_at) / Fold change /veh RNFT2 (11725882_a_at) / RFU NR4A2 (11747474_a_at) / Fold change /veh NR4A2 (11747474_a_at) / RFU ABCC12 (11746883_a_at) / Fold change /veh ABCC12 (11746883_a_at) / RFU TMEM136 (11760407_x_at) / Fold change /veh TMEM136 (11760407_x_at) / RFU CLDN22 /// WWC2 (11732394_at) / Fold change /veh CLDN22 /// WWC2 (11732394_at) / RFU HLA-DPB1 (11760878_x_at) / Fold change /veh HLA-DPB1 (11760878_x_at) / RFU SPINT1 (11716480_a_at) / Fold change /veh SPINT1 (11716480_a_at) / RFU GAP43 (11754022_s_at) / Fold change /veh GAP43 (11754022_s_at) / RFU A4GNT (11735810_at) / Fold change /veh A4GNT (11735810_at) / RFU PRB3 (11715151_x_at) / Fold change /veh PRB3 (11715151_x_at) / RFU TUBB4B (11761932_at) / Fold change /veh TUBB4B (11761932_at) / RFU CAPN14 (11732068_a_at) / Fold change /veh CAPN14 (11732068_a_at) / RFU TMCC2 (11721928_a_at) / Fold change /veh TMCC2 (11721928_a_at) / RFU IRGQ (11745062_a_at) / Fold change /veh IRGQ (11745062_a_at) / RFU FAM174B (11720279_a_at) / Fold change /veh FAM174B (11720279_a_at) / RFU TMPRSS4 (11748680_a_at) / Fold change /veh TMPRSS4 (11748680_a_at) / RFU FAM212B (11763350_a_at) / Fold change /veh FAM212B (11763350_a_at) / RFU PLEKHG5 (11743358_a_at) / Fold change /veh PLEKHG5 (11743358_a_at) / RFU ZSCAN30 (11745921_a_at) / Fold change /veh ZSCAN30 (11745921_a_at) / RFU CMKLR1 (11741424_a_at) / Fold change /veh CMKLR1 (11741424_a_at) / RFU LOC101060620 /// MAPK8IP1 (11723275_at) / Fold change /veh LOC101060620 /// MAPK8IP1 (11723275_at) / RFU SPTSSB (11747773_x_at) / Fold change /veh SPTSSB (11747773_x_at) / RFU PRSS12 (11739890_at) / Fold change /veh PRSS12 (11739890_at) / RFU BIN1 (11741810_x_at) / Fold change /veh BIN1 (11741810_x_at) / RFU WNT11 (11732464_a_at) / Fold change /veh WNT11 (11732464_a_at) / RFU C10orf10 (11716521_a_at) / Fold change /veh C10orf10 (11716521_a_at) / RFU C5orf56 (11738089_at) / Fold change /veh C5orf56 (11738089_at) / RFU CYB561 (11721691_x_at) / Fold change /veh CYB561 (11721691_x_at) / RFU ANKRD19P (11752326_a_at) / Fold change /veh ANKRD19P (11752326_a_at) / RFU OR2T12 /// OR2T33 /// OR2T8 (11738714_s_at) / Fold change /veh OR2T12 /// OR2T33 /// OR2T8 (11738714_s_at) / RFU VCAN (11748164_a_at) / Fold change /veh VCAN (11748164_a_at) / RFU JSRP1 (11732532_at) / Fold change /veh JSRP1 (11732532_at) / RFU KRTAP10-11 (11738290_x_at) / Fold change /veh KRTAP10-11 (11738290_x_at) / RFU MYO3A (11730013_a_at) / Fold change /veh MYO3A (11730013_a_at) / RFU EBF3 (11725865_a_at) / Fold change /veh EBF3 (11725865_a_at) / RFU CAMK2N1 (11719241_x_at) / Fold change /veh CAMK2N1 (11719241_x_at) / RFU C5orf56 (11738088_a_at) / Fold change /veh C5orf56 (11738088_a_at) / RFU OLFML3 (11715873_a_at) / Fold change /veh OLFML3 (11715873_a_at) / RFU LOC100653217 /// NTM (11731650_a_at) / Fold change /veh LOC100653217 /// NTM (11731650_a_at) / RFU MAPK11 (11762145_a_at) / Fold change /veh MAPK11 (11762145_a_at) / RFU FIZ1 (11724087_x_at) / Fold change /veh FIZ1 (11724087_x_at) / RFU OASL (11726364_x_at) / Fold change /veh OASL (11726364_x_at) / RFU SOX15 (11748057_x_at) / Fold change /veh SOX15 (11748057_x_at) / RFU CD79A (11719716_a_at) / Fold change /veh CD79A (11719716_a_at) / RFU HIST1H1D (11736915_at) / Fold change /veh HIST1H1D (11736915_at) / RFU CASKIN2 (11723855_a_at) / Fold change /veh CASKIN2 (11723855_a_at) / RFU LOC730098 (11760151_x_at) / Fold change /veh LOC730098 (11760151_x_at) / RFU OR4N2 (11742367_at) / Fold change /veh OR4N2 (11742367_at) / RFU PRRT2 (11749266_a_at) / Fold change /veh PRRT2 (11749266_a_at) / RFU SNX32 (11753110_a_at) / Fold change /veh SNX32 (11753110_a_at) / RFU CDHR5 (11726645_a_at) / Fold change /veh CDHR5 (11726645_a_at) / RFU RCAN1 (11760418_a_at) / Fold change /veh RCAN1 (11760418_a_at) / RFU FAM167A (11723789_a_at) / Fold change /veh FAM167A (11723789_a_at) / RFU FAM26E (11764081_at) / Fold change /veh FAM26E (11764081_at) / RFU ISYNA1 (11749810_s_at) / Fold change /veh ISYNA1 (11749810_s_at) / RFU ACY1 (11761880_at) / Fold change /veh ACY1 (11761880_at) / RFU 11764098_at / Fold change /veh 11764098_at / RFU SAMD14 (11745864_x_at) / Fold change /veh SAMD14 (11745864_x_at) / RFU NPB (11741838_a_at) / Fold change /veh NPB (11741838_a_at) / RFU TMPRSS6 (11731388_a_at) / Fold change /veh TMPRSS6 (11731388_a_at) / RFU KRTAP10-2 (11738614_at) / Fold change /veh KRTAP10-2 (11738614_at) / RFU ARHGAP8 /// PRR5-ARHGAP8 (11727945_x_at) / Fold change /veh ARHGAP8 /// PRR5-ARHGAP8 (11727945_x_at) / RFU KRTAP5-7 /// NADSYN1 (11734609_at) / Fold change /veh KRTAP5-7 /// NADSYN1 (11734609_at) / RFU RASL12 (11751679_a_at) / Fold change /veh RASL12 (11751679_a_at) / RFU CDKN2B (11736163_a_at) / Fold change /veh CDKN2B (11736163_a_at) / RFU PRF1 (11729649_at) / Fold change /veh PRF1 (11729649_at) / RFU, ZNF638 /// ZNF638-IT1 / Fold change vs veh, ZNF638 /// ZNF638-IT1 / RFU, PANK3 / Fold change vs veh, PANK3 / RFU, SH3YL1 / Fold change vs veh, SH3YL1 / RFU, ZEB2 / Fold change vs veh, ZEB2 / RFU, NRIP1 / Fold change vs veh, NRIP1 / RFU, PTTG1IP / Fold change vs veh, PTTG1IP / RFU, CAPN2 / Fold change vs veh, CAPN2 / RFU, MED14 / Fold change vs veh, MED14 / RFU, SNORA58 / Fold change vs veh, SNORA58 / RFU, C1orf63 / Fold change vs veh, C1orf63 / RFU, LRRFIP1 / Fold change vs veh, LRRFIP1 / RFU, NDUFAF7 / Fold change vs veh, NDUFAF7 / RFU, SLC12A2 / Fold change vs veh, SLC12A2 / RFU, IBTK / Fold change vs veh, IBTK / RFU, ESF1 / Fold change vs veh, ESF1 / Fold change vs veh, TMEM50B / RFU, TAOK1 / Fold change vs veh, TAOK1 / RFU, ACBD3 / Fold change vs veh, ACBD3 / RFU, TMA16 / Fold change vs veh, TMA16 / RFU, RWDD3 / Fold change vs veh, RWDD3 / RFU, BCAT1 / Fold change vs veh, BCAT1 / RFU, EDEM3 / Fold change vs veh, EDEM3 / RFU, TMEM33 / Fold change vs veh, TMEM33 / RFU, WDR75 / Fold change vs veh, WDR75 / RFU, AHCTF1 / Fold change vs veh, AHCTF1 / RFU, TFRC / Fold change vs veh, TFRC / RFU, ZDHHC17 / Fold change vs veh, ZDHHC17 / RFU, NOM1 / Fold change vs veh, NOM1 / RFU, ARL8B / Fold change vs veh, ARL8B / RFU, ZBTB11 / Fold change vs veh, ZBTB11 / RFU, TAMM41 / Fold change vs veh, TAMM41 / RFU, KIAA1704 /// LOC100996395 / Fold change vs veh, KIAA1704 /// LOC100996395 / RFU, ING1 / Fold change vs veh, ING1 / RFU, TRMT61B / Fold change vs veh, TRMT61B / RFU, FUBP3 / Fold change vs veh, FUBP3 / RFU, TP53 / Fold change vs veh, TP53 / RFU, TNKS2 / Fold change vs veh, TNKS2 / RFU, ZFP14 / Fold change vs veh, ZFP14 / RFU, ACTR2 / Fold change vs veh, ACTR2 / RFU, PPP3R1 / Fold change vs veh, PPP3R1 / RFU, PIK3R1 / Fold change vs veh, PIK3R1 / RFU, HNRNPA1 / Fold change vs veh, HNRNPA1 / RFU, RNF170 / Fold change vs veh, RNF170 / RFU, ZNF28 / Fold change vs veh, ZNF28 / RFU, RNGTT / Fold change vs veh, RNGTT / RFU, OGT / Fold change vs veh, OGT / RFU, BRD1 / Fold change vs veh, BRD1 / RFU, MARS / Fold change vs veh, MARS / RFU, ZNF655 / Fold change vs veh, ZNF655 / RFU, FAHD1 / Fold change vs veh, FAHD1 / RFU, BDP1 / Fold change vs veh, BDP1 / RFU, LRRCC1 / Fold change vs veh, LRRCC1 / RFU, ARID1A / Fold change vs veh, ARID1A / RFU, ZNF146 / Fold change vs veh, ZNF146 / RFU, ZNF330 / Fold change vs veh, ZNF330 / RFU, GPN3 / Fold change vs veh, GPN3 / RFU, C9orf123 / Fold change vs veh, C9orf123 / RFU, N4BP2L2 / Fold change vs veh, N4BP2L2 / RFU, ARFIP1 / Fold change vs veh, ARFIP1 / RFU, FAM179B / Fold change vs veh, FAM179B / RFU, BCL10 / Fold change vs veh, BCL10 / RFU, UHRF1BP1L / Fold change vs veh, UHRF1BP1L / RFU, BET1 / Fold change vs veh, BET1 / RFU, CNOT2 / Fold change vs veh, CNOT2 / RFU, ZNF268 / Fold change vs veh, ZNF268 / Fold change vs veh, ZNF507 / RFU, DGCR2 / Fold change vs veh, DGCR2 / RFU, WDSUB1 / Fold change vs veh, WDSUB1 / Fold change vs veh, HSP90B1 /// MIR3652 / RFU, ADSS / Fold change vs veh, ADSS / RFU, GK / Fold change vs veh, GK / RFU, ZNF148 / Fold change vs veh, ZNF148 / RFU, TAF9 / Fold change vs veh, TAF9 / RFU, SLC1A5 / Fold change vs veh, SLC1A5 / RFU, SLMO2 / Fold change vs veh, SLMO2 / RFU, ABCC4 / Fold change vs veh, ABCC4 / RFU, LOC101060439 /// RAP1B / Fold change vs veh, LOC101060439 /// RAP1B / RFU, RFX7 / Fold change vs veh, RFX7 / RFU, GTPBP10 / Fold change vs veh, GTPBP10 / RFU, CNEP1R1 / Fold change vs veh, CNEP1R1 / RFU, BIVM-ERCC5 /// ERCC5 / Fold change vs veh, BIVM-ERCC5 /// ERCC5 / RFU, ILF3 / Fold change vs veh, ILF3 / RFU 11762660_at / Fold change /veh 11762660_at / RFU VCAN (11757783_s_at) / Fold change /veh VCAN (11757783_s_at) / RFU DDX43 (11728927_at) / Fold change /veh DDX43 (11728927_at) / RFU KRT8 (11758188_x_at) / Fold change /veh KRT8 (11758188_x_at) / RFU NKD1 (11759106_at) / Fold change /veh NKD1 (11759106_at) / RFU SRD5A1 (11742802_a_at) / Fold change /veh SRD5A1 (11742802_a_at) / RFU TPSAB1 /// TPSB2 (11721975_s_at) / Fold change /veh TPSAB1 /// TPSB2 (11721975_s_at) / RFU GSTM3 (11746129_a_at) / Fold change /veh GSTM3 (11746129_a_at) / RFU IL23R (11737362_x_at) / Fold change /veh IL23R (11737362_x_at) / RFU TMEM51 (11727254_a_at) / Fold change /veh TMEM51 (11727254_a_at) / RFU PIWIL2 (11732686_x_at) / Fold change /veh PIWIL2 (11732686_x_at) / RFU ORM1 (11744905_x_at) / Fold change /veh ORM1 (11744905_x_at) / RFU CCDC152 (11743942_at) / Fold change /veh CCDC152 (11743942_at) / RFU ECM1 (11717891_a_at) / Fold change /veh ECM1 (11717891_a_at) / RFU IL23R (11748794_a_at) / Fold change /veh IL23R (11748794_a_at) / RFU TNFAIP8L3 (11732012_x_at) / Fold change /veh TNFAIP8L3 (11732012_x_at) / RFU MBOAT4 (11741988_at) / Fold change /veh MBOAT4 (11741988_at) / RFU 11764193_at / Fold change /veh 11764193_at / RFU TMEM53 (11763286_at) / Fold change /veh TMEM53 (11763286_at) / RFU MAGEB2 (11727129_at) / Fold change /veh MAGEB2 (11727129_at) / RFU TMEM200A (11744735_a_at) / Fold change /veh TMEM200A (11744735_a_at) / RFU CCDC152 (11751479_a_at) / Fold change /veh CCDC152 (11751479_a_at) / RFU FAM211A (11726209_a_at) / Fold change /veh FAM211A (11726209_a_at) / RFU RGS16 (11746705_a_at) / Fold change /veh RGS16 (11746705_a_at) / RFU VCAN (11755009_s_at) / Fold change /veh VCAN (11755009_s_at) / RFU RHOB (11743442_s_at) / Fold change /veh RHOB (11743442_s_at) / RFU RGS16 (11720943_a_at) / Fold change /veh RGS16 (11720943_a_at) / RFU RGS16 (11720944_at) / Fold change /veh RGS16 (11720944_at) / RFU, VPS4B / Fold change vs veh, VPS4B / RFU, CREB1 / Fold change vs veh, CREB1 / RFU, DNAJC13 / Fold change vs veh, DNAJC13 / RFU, GNAQ / Fold change vs veh, GNAQ / RFU, CDK5R1 / Fold change vs veh, CDK5R1 / RFU, ZRANB3 / Fold change vs veh, ZRANB3 / RFU, CUL4A / Fold change vs veh, CUL4A / RFU, CCNY / Fold change vs veh, CCNY / RFU, UFL1 / Fold change vs veh, UFL1 / RFU, COG3 / Fold change vs veh, COG3 / RFU, DIAPH2 / Fold change vs veh, DIAPH2 / RFU, SKA2 / Fold change vs veh, SKA2 / RFU, AFF3 / Fold change vs veh, AFF3 / RFU, LMF1 / Fold change vs veh, LMF1 / RFU, IPO11 / Fold change vs veh, IPO11 / RFU, DFFB / Fold change vs veh, DFFB / RFU, FOXP1 / Fold change vs veh, FOXP1 / RFU, CARD8 / Fold change vs veh, CARD8 / RFU, STRN3 / Fold change vs veh, STRN3 / RFU, ADK / Fold change vs veh, ADK / RFU, RASSF2 / Fold change vs veh, RASSF2 / RFU, WIPF1 / Fold change vs veh, WIPF1 / RFU, LARP1B / Fold change vs veh, LARP1B / RFU, RASA1 / Fold change vs veh, RASA1 / RFU, RB1 / Fold change vs veh, RB1 / RFU, PPFIA1 / Fold change vs veh, PPFIA1 / RFU, MAT2A / Fold change vs veh, MAT2A / RFU, CCT5 / Fold change vs veh, CCT5 / RFU, WDR92 / Fold change vs veh, WDR92 / RFU, CUX1 / Fold change vs veh, CUX1 / RFU, TTC7A / Fold change vs veh, TTC7A / RFU, TMEM135 / Fold change vs veh, TMEM135 / RFU, DEPTOR / Fold change vs veh, DEPTOR / RFU, CPM / Fold change vs veh, CPM / RFU, DNAJB6 / Fold change vs veh, DNAJB6 / RFU, CACNA2D3 / Fold change vs veh, CACNA2D3 / RFU, DTX4 / Fold change vs veh, DTX4 / RFU, TFCP2 / Fold change vs veh, TFCP2 / RFU, GMCL1 /// GMCL1P1 / Fold change vs veh, GMCL1 /// GMCL1P1 / RFU, AEBP2 / Fold change vs veh, AEBP2 / RFU, SNHG1 /// SNORD22 /// SNORD25 /// SNORD26 /// SNORD27 /// SNORD28 /// SNORD29 /// SNORD31 / Fold change vs veh, SNHG1 /// SNORD22 /// SNORD25 /// SNORD26 /// SNORD27 /// SNORD28 /// SNORD29 /// SNORD31 / Fold change (Aza/veh), C12orf56 (ProbeSet 11735607_a_at) / Fold change (ACY-1035/veh), C12orf56 (ProbeSet 11735607_a_at) / Fold change (Aza/veh), FGFR1OP (ProbeSet 11751329_s_at) / Fold change (ACY-1035/veh), FGFR1OP (ProbeSet 11751329_s_at) / Fold change (Aza/veh), VPS36 (ProbeSet 11739960_a_at) / Fold change (ACY-1035/veh), VPS36 (ProbeSet 11739960_a_at) / RFU SYPL1 (11715823_x_at) / Fold change /veh SYPL1 (11715823_x_at) / RFU IGFBP7 (11715501_s_at) / Fold change /veh IGFBP7 (11715501_s_at) / RFU REEP3 (11722064_at) / Fold change /veh REEP3 (11722064_at) / RFU IGLL1 (11728026_x_at) / Fold change /veh IGLL1 (11728026_x_at): dose or concentration left out as unconfirmed
# Settings: ProbeSet 11717914_a_at; LIST B
smiles,measurement,value
Nc1ccc(-c2cccs2)cc1NC(=O)c1ccc2c(c1)cc(C1CC1)n2CCN1CCOCC1 [ACY-1035],"Fold change vs veh, BIVM-ERCC5 /// ERCC5",1.00
